{
  "source": "paper PMC8143069",
  "about": "(Cell Discovery, 2021)",
  "key": {"human recombinant LSD1 [1]": {"system": "human recombinant LSD1", "test": "LSD1 demethylation assay with di-methylated ACE2 peptides as substrates", "format": "biochemical", "details": "for Demethylation of NLS peptides by LSD1 (rank order): LSD1 fluorimetric kit, background subtracted, one-way ANOVA P < 0.0001 (Fig. 4d)"}, "COVID-19": {"system": "COVID-19", "details": "cited from earlier work"}, "[2]": {"system": "SARS-CoV-2-S-driven entry, Caco-2 cells", "details": "cited from earlier work"}, "ACE2, Caco-2 cells": {"system": "ACE2, Caco-2 cells", "format": "cell-based, human", "details": "Caco-2, FAM5-tagged NACE2i, single treatment, after 8 h and up to 96 h; P < 0.0001 (Fig. 5b)"}, "Caco-2 cells [3]": {"system": "Caco-2 cells", "format": "physicochemical, human", "details": "FAM5-tagged peptide, single treatment, Caco-2 culture, over 96 h, fluorescence imaging"}, "[4]": {"system": "SARS-CoV-2 spike protein at Caco-2 cell surface", "format": "cell-based"}, "SARS-CoV-2 [5]": {"system": "SARS-CoV-2", "format": "cell-based"}, "[6]": {"system": "SARS-CoV-2-infected Caco-2 cells", "format": "cell-based, human"}, "[7]": {"system": "SARS-CoV-2-infected Caco-2 cells", "format": "cell-based, human", "remark": "listed apart in the source"}, "[8]": {"system": "SARS-CoV-2-infected Caco-2 cells", "format": "cell-based, human / SARS-CoV-2"}, "[9]": {"system": "ACE2-IMPα3 colocalization, SARS-CoV-2-infected Caco-2 cells", "format": "cell-based, human"}, "Caco-2 cells [10]": {"system": "Caco-2 cells"}, "Caco-2 cells [11]": {"system": "Caco-2 cells", "remark": "listed apart in the source"}, "[12]": {"system": "nuclear LSD1/CoREST complex", "details": "cited from earlier work"}, "[13]": {"system": "T cells in human breast cancer", "details": "cited from earlier work"}, "human recombinant LSD1 [14]": {"system": "human recombinant LSD1", "format": "biochemical"}, "[15]": {"system": "ACE2 (pan-methylation lysine), Caco-2 cells", "format": "cell-based, human"}, "[16]": {"system": "ACE2-SARS-CoV-2 spike protein interaction, Caco-2 cells", "format": "cell-based, human / SARS-CoV-2"}, "SARS-CoV-2 [17]": {"system": "SARS-CoV-2", "format": "cell-based", "remark": "listed apart in the source"}, "LSD1": {"system": "LSD1", "details": "cited from earlier work"}, "SARS-CoV-2 [18]": {"system": "SARS-CoV-2", "details": "cited from earlier work"}},
  "note": "“Also recorded” adds a separate entry of the source. Structures can show the parent of a compound that is named as a salt. Where two headings read alike, the source gives them in different places. Where no end group is shown, it is not given here. [ ]: non-standard residue; d: D form. Lys(Me2) = CN(C)CCCC[C@H](N)C(=O)O",
  "data": [
    {"molecule": "TGIRDR[Lys(Me2)]K[Lys(Me2)]NKARS [PEP4]", "values": [
      {"measurement": "Demethylation of NLS peptides by LSD1 (rank order)", "setting": "human recombinant LSD1 [1]", "value": "greatest demethylation"}
    ]},
    {"molecule": "tocilizumab", "values": [
      {"measurement": "clinical outcome in COVID-19", "setting": "COVID-19", "value": "mixed results in clinical studies"}
    ]},
    {"molecule": "CN(C)C(=O)COC(=O)Cc1ccc(OC(=O)c2ccc(NC(=N)N)cc2)cc1", "note": "[camostat mesylate]", "values": [
      {"measurement": "SARS-CoV-2-S-driven entry", "setting": "[2]", "value": "partially blocked SARS-CoV-2-S-driven entry into Caco-2 cells"}
    ]},
    {"molecule": "TGIRDRKKKNKARS-(FAM5) [FAM5-tagged NACE2i]", "values": [
      {"measurement": "nuclear ACE2 expression over time", "setting": "ACE2, Caco-2 cells", "value": "significantly inhibited nuclear ACE2 expression after 8 h and up to 96 h"},
      {"measurement": "peptide stability", "setting": "Caco-2 cells [3]", "value": "stable over time"}
    ]},
    {"molecule": "NNCCc1ccccc1", "note": "[phenelzine]", "values": [
      {"measurement": "spike protein expression at the cell surface", "setting": "[4]", "value": "reduced spike protein expression at the cell surface of infected cells"},
      {"measurement": "viral RNA levels in culture supernatants", "setting": "SARS-CoV-2 [5]", "value": "negligibly reduced viral RNA levels in culture supernatants"},
      {"measurement": "DUSP1, DUSP6, DUPS8 expression", "setting": "[6]", "value": "highly upregulated"},
      {"measurement": "IRF7 gene expression", "setting": "[6]", "value": "upregulation of IRF7 gene expression"},
      {"measurement": "enriched Reactome pathways vs control", "setting": "[6]", "value": "translation and MAPK pathways were enriched; also recorded: post-transcriptional protein phosphorylation and amino acid synthesis and interconversion (transamination) processes were significantly enriched; also recorded: regulates MAPK signaling-related pathways"},
      {"measurement": "number of differentially expressed genes vs control", "setting": "[6]", "value": 1059, "unit": "DEGs"},
      {"measurement": "IFNβ and OASL expression", "setting": "[7]", "value": "further increased"},
      {"measurement": "LSD1, ACE2, and TMPRSS2 transcript", "setting": "[7]", "value": "remained unaltered"},
      {"measurement": "RIG1, MDA5, and ISG15 mRNA", "setting": "[7]", "value": "remained unaltered"},
      {"measurement": "SARS-CoV-2 spike protein expression", "setting": "[8]", "value": "decreased SARS-CoV-2 spike protein expression"},
      {"measurement": "co-localization of ACE2 and SARS-CoV-2 spike protein", "setting": "[8]", "value": "significantly reduced the co-localization of ACE2 and SARS-CoV-2 spike protein"},
      {"measurement": "IMPα3 nuclear expression", "setting": "[9]", "value": "no effect on IMPα3 nuclear expression"},
      {"measurement": "co-localization of ACE2 and IMPα3 (PCC)", "setting": "[9]", "value": "minimal effect"},
      {"measurement": "cell proliferation", "setting": "Caco-2 cells [10]", "value": "neither altered cell proliferation"},
      {"measurement": "cell viability", "setting": "Caco-2 cells [11]", "value": "> 90", "unit": "%"},
      {"measurement": "disruption of nuclear LSD1/CoREST complex", "setting": "[12]", "value": "can disrupt the nuclear LSD1/CoREST complex"},
      {"measurement": "T cell responses", "setting": "[13]", "value": "epigenetically restore T cell responses in human breast cancer"}
    ]},
    {"molecule": "TGIRDRKK[Lys(Me2)]NKARS [PEP3]", "values": [
      {"measurement": "Demethylation of NLS peptides by LSD1 (rank order)", "setting": "human recombinant LSD1 [1]", "value": "followed by PEP3, PEP2, and PEP1"}
    ]},
    {"molecule": "O=C(O)c1ccc(CN2CCC(CN[C@@H]3C[C@H]3c3ccccc3)CC2)cc1", "note": "[GSK, GSK2879552]", "values": [
      {"measurement": "ACE2 lysine 31 (ACE2me2 peptide) demethylation", "setting": "human recombinant LSD1 [14]", "value": "further decreases were observed"},
      {"measurement": "association between ACE2 and pan-methylation lysine antibody (PLA)", "setting": "[15]", "value": "increased the association between ACE2 and pan-methylation lysine antibody in infected cells"},
      {"measurement": "spike protein expression at the cell surface", "setting": "[4]", "value": "to a greater extent GSK treatment, reduced spike protein expression at the cell surface of infected cells"},
      {"measurement": "ACE2/spike interaction at cell surface (PLA)", "setting": "[16]", "value": "significantly decreased interaction"},
      {"measurement": "viral RNA levels in culture supernatants", "setting": "SARS-CoV-2 [5]", "value": "negligibly reduced viral RNA levels in culture supernatants"},
      {"measurement": "inhibition of viral RNA in infected cells (comparison)", "setting": "SARS-CoV-2 [17]", "value": "greatest inhibition of viral RNA in infected cells"},
      {"measurement": "viral load, % virus-aligned reads over total reads", "setting": "SARS-CoV-2 [17]", "value": 1, "unit": "%"},
      {"measurement": "enriched Reactome pathways vs control", "setting": "[6]", "value": "downregulated genes enriched in the IFN pathway"},
      {"measurement": "number of differentially expressed genes vs control", "setting": "[6]", "value": 73, "unit": "DEGs"},
      {"measurement": "LSD1, ACE2, and TMPRSS2 transcript", "setting": "[7]", "value": "remained unaltered"},
      {"measurement": "RIG1, MDA5, and ISG15 mRNA", "setting": "[7]", "value": "remained unaltered"},
      {"measurement": "SARS-CoV-2 spike protein expression", "setting": "[8]", "value": "decreased SARS-CoV-2 spike protein expression"},
      {"measurement": "co-localization of ACE2 and SARS-CoV-2 spike protein", "setting": "[8]", "value": "significantly reduced the co-localization of ACE2 and SARS-CoV-2 spike protein"},
      {"measurement": "IMPα3 nuclear expression", "setting": "[9]", "value": "no effect on IMPα3 nuclear expression"},
      {"measurement": "co-localization of ACE2 and IMPα3 (PCC)", "setting": "[9]", "value": "minimal effect"},
      {"measurement": "cell proliferation", "setting": "Caco-2 cells [10]", "value": "neither altered cell proliferation"},
      {"measurement": "cell viability", "setting": "Caco-2 cells [11]; uninfected Caco-2, up to 72 h, n=3 (Fig. S2d)", "value": "> 90", "unit": "%"},
      {"measurement": "inhibition of LSD1 catalytic activity (compared with phenelzine)", "setting": "LSD1", "value": "significantly more potent inhibitor of LSD1 catalytic activity than phenelzine"}
    ]},
    {"molecule": "TGIRDRK[Lys(Me2)]KNKARS [PEP2]", "values": [
      {"measurement": "Demethylation of NLS peptides by LSD1 (rank order)", "setting": "human recombinant LSD1 [1]", "value": "followed by PEP3, PEP2, and PEP1"}
    ]},
    {"molecule": "QAKTFLD[Lys(Me2)]FNHEAED [ACE2me2]", "values": [
      {"measurement": "Demethylation of peptide by LSD1 (substrate)", "setting": "human recombinant LSD1 [1]; ACE2me2 peptide, lysine 31, fluorescence", "value": "efficiently de-methylated"}
    ]},
    {"molecule": "N[C@@H]1C[C@H]1c1ccccc1", "note": "(racemic) [tranylcypromine]", "values": [
      {"measurement": "ACE2 lysine 31 (ACE2me2 peptide) demethylation", "setting": "human recombinant LSD1 [14]", "value": "significantly decreased ACE2 lysine 31 demethylation"}
    ]},
    {"molecule": "TGIRDR[Lys(Me2)]KKNKARS [PEP1]", "values": [
      {"measurement": "Demethylation of NLS peptides by LSD1 (rank order)", "setting": "human recombinant LSD1 [1]", "value": "followed by PEP3, PEP2, and PEP1"}
    ]},
    {"molecule": "ivermectin", "values": [
      {"measurement": "SARS-CoV-2 replication", "setting": "SARS-CoV-2 [18]", "value": "inhibits SARS-CoV-2 replication"}
    ]},
    {"molecule": "CCN(CCO)CCCC(C)Nc1ccnc2cc(Cl)ccc12", "note": "(stereo not shown) [hydroxychloroquine]", "values": [
      {"measurement": "clinical outcome in COVID-19", "setting": "COVID-19", "value": "lack of effect or even increased harm"}
    ]},
    {"molecule": "C/C(=N\\NC(=O)c1cccc(S(=O)(=O)N2CCOCC2)c1)c1cc(Cl)ccc1O", "note": "[SP2509]", "values": [
      {"measurement": "ACE2 lysine 31 (ACE2me2 peptide) demethylation", "setting": "human recombinant LSD1 [14]; LSD1 incubated with inhibitor 30 min at room temperature, LSD1 fluorimetric kit, 40 s intervals, one-way ANOVA P < 0.0001 (Fig. 2a)", "value": "showed the highest inhibitory potency of all the LSD1 inhibitors in vitro"}
    ]},
    {"molecule": "sarilumab (antibody, chains of the INN, looked up, V domains shown) VH: EVQLVESGGGLVQPGRSLRLSCAASRFTFDDYAMHWVRQAPGKGLEWVSGISWNSGRIGYADSVKGRFTISRDNAENSLFLQMNGLRAEDTALYYCAKGRDSFDIWGQGTMVTVSS VL: DIQMTQSPSSVSASVGDRVTITCRASQGISSWLAWYQQKPGKAPKLLIYGASSLESGVPSRFSGSGSGTDFTLTISSLQPEDFASYYCQQANSFPYTFGQGTKLEIK", "values": [
      {"measurement": "clinical outcome in COVID-19", "setting": "COVID-19", "value": "mixed results in clinical studies"}
    ]}
  ]
}
